Experimental data as given in paper PMC10338316, “Functional and structural characterization of Streptococcus pneumoniae pyruvate kinase involved in fosfomycin resistance” (The Journal of Biological Chemistry, 2023).

How the values were obtained:
[1] = biological target: T1, SpPYK (Streptococcus pneumoniae, UniProt Q8DQ84); assay: X-ray crystal structure (FBP, PEP/FBP at […] Å, oxalate/FBP); conditions: allosteric activator; effector binding site in the C domain
T1 construct: gene pykF; recombinant, E. coli BL21(DE3) derivative, His60 Ni resin (tag details in supplement); homotetramer; single pyk gene

[2] = biological target: T1, SpPYK; assay: lactate dehydrogenase coupled assay, NADH absorbance at […] nm; type: biochemical; conditions: allosteric activator (modest), 2 mM G6P; PEP varied, 3 mM ADP, pH 7.5, 25 °C
[3] = biological target: T1, SpPYK; assay: X-ray crystal structure (PEP; PEP/FBP at […] Å); type: binding; conditions: catalytic site, Mg2+ and K+
[4] = biological target: T1, SpPYK; assay: X-ray crystal structure (oxalate; oxalate/FBP); type: binding; conditions: catalytic site; enolpyruvate analog; weak density for a second oxalate in the effector site
[5] = system: C=C(OP(=O)(O)O)C(=O)O; assay: purified protein; conditions: 3 mM ADP, 10 mM MgCl2, 100 mM KCl, 20 mM HEPES pH 7.5, 25 °C, no effector, Hill coefficient 1.88 ± 0.10
[6] = system: Nc1ncnc2c1ncn2[C@@H]1O[C@H](COP(=O)(O)OP(=O)(O)O)[C@@H](O)[C@H]1O; assay: purified protein; conditions: 3 mM PEP, 10 mM MgCl2, 100 mM KCl, 20 mM HEPES pH 7.5, 25 °C, Hill coefficient 1.47 ± 0.07
[7] = biological target: the molecule itself; assay: crystal structure; X-ray crystal structures of SpPYK in six states (apo, oxalate, oxalate/FBP, FBP, PEP, PEP/FBP); vapor diffusion at 25 °C, 15 to 20 mg/ml protein in 20 mM HEPES pH 7.5, 150 mM NaCl, for the ligand-bound forms with 100 mM KCl, 20 mM MgCl2 and 5-20 mM ligand(s); protomers of the tetramer

## O=P(O)(O)OC[C@H]1OC(O)(COP(=O)(O)O)[C@@H](O)[C@@H]1O (stereo partly shown) [FBP, fructose 1,6-bisphosphate]
[1]
  X-ray crystal structure (FBP, PEP/FBP at 1.8 Å, oxalate/FBP): FBP is found at the effector binding site in the C domain

## O=P(O)(O)OC[C@H]1OC(O)[C@H](O)[C@@H](O)[C@@H]1O (stereo partly shown) [G6P, glucose 6-phosphate]
[2]
  lactate dehydrogenase coupled assay, NADH absorbance at 340 nm: only a modest activation effect was observed upon G6P addition

## C=C(OP(=O)(O)O)C(=O)O [PEP, phosphoenolpyruvate]
[3]
  X-ray crystal structure (PEP; PEP/FBP at 1.8 Å): The bound PEP or oxalate is seen in the catalytic site

## O=C(O)C(=O)O [oxalate]
[4]
  X-ray crystal structure (oxalate; oxalate/FBP): The bound PEP or oxalate is seen in the catalytic site

## SpPYK (Streptococcus pneumoniae R6)
[5]
  K0.5: 1.36 ± 0.06 mM
[6]
  K0.5: 1.09 ± 0.06 mM

B1: Streptococcus pneumoniae pyruvate kinase (enzyme)
chain: MNKRVKIVATLGPAVEIRGGKKFGEDGYWGEKLDVEASAKNIAKLIEAGANTFRFNFSHGDHQEQGERMATVKLAEKIAGKKVGFLLDTKGPEIRTELFEGEAKEYSYKTGEKIRVATKQGIKSTREVIALNVAGALDIYDDVEVGRQVLVDDGKLGLRVVAKDDATREFEVEVENDGIIAKQKGVNIPNTKIPFPALAERDNDDIRFGLEQGINFIAISFVRTAKDVNEVRAICEETGNGHVQLFAKIENQQGIDNLDEIIEAADGIMIARGDMGIEVPFEMVPVYQKMIIKKVNAAGKVVITATNMLETMTEKPRATRSEVSDVFNAVIDGTDATMLSGESANGKYPLESVTTMATIDKNAQALLNEYGRLDSDSFERNSKTEVMASAVKDATSSMDIKLVVTLTKTGHTARLISKYRPNADILALTFDELTERGLMLNWGVIPMLTDAPSSTDDMFEIAERKAVEAGLVESGDDIVIVAGVPVGEAVRTNTMRIRTVR
notes: pyruvate kinase (PYK) of Streptococcus pneumoniae, wild type; the strain of the cloned gene and the construct limits are told only in the Supporting information; Homotetramer in the crystal structures; also called SpPYK; PYK
[7]
  stoichiometry N: 4
